Experimental data: US11008292B2, “FGFR4 inhibitor and preparation method and use thereof” (GUANGDONG ZHONGSHENG PHARMACEUTICAL CO., LTD, priority 2016, dated 2021)
pIC50: −log10 of the molar value. Read-outs that look alike come from different tables or passages of the source.

What was measured:
FGFR1 protein kinase = molecular target: T1, FGFR1 protein kinase (Homo sapiens, UniProt P11362); assay: In vitro enzyme activity test, Z′-LYTE Assay, FGFR1 enzymatic reaction; format: biochemical; settings: Z′-LYTE detection; 25 μM ATP
T1 construct: purchased Life technology
Method: (§1) The inhibitory effects of the compounds on FGFR4 kinases were assessed by detecting the enzymatic activities through Z′-LYTE® Assay, with the IC50 value of the compound as the indicator. This activity test was performed by Life technology.
(§2) The test compounds were diluted in a concentration gradient of 3-times, the final concentrations were 10 concentrations ranging from 10 μM to 0.5 nM, with double hole for each concentration; the content of DMSO in the detection reaction was 1%.
FGFR1 Enzymatic Reaction:
1 nM FGFR1 protein kinase, 2 μM Tyr4 peptide, 25 μM ATP, 50 mM HEPES (pH 7.5), 10 mM MgCl2, 1 mM EGTA, 0.01% BRIJ-35, 2 mM MnCl2, 1 mM DTT. The detection plate was Black Proxiplate 384-Plus plate (PerkinElmer), reaction conducted at room temperature for 60 minutes, and the reaction system was 10μμL.
(§3) To the kinase reaction solution was added 5 μL Development reagent B (1:64) to stop the reaction and incubated at 23° C. for 60 minutes, reading the plate with Envision instrument.
(§4) Data was transformed into the phosphorylation rate and the inhibitory rate by curve fitting with Model 205 in XLFIT (iDBS) to obtain the IC50 data of the compounds. It was set as 0% if the bottom of the curve was not in the range of −20% to 20%; otherwise it was set as 100% if the top of the curve was not in the range of 70% to 130%.

FGFR4 kinases = molecular target: T2, FGFR4 kinases (Homo sapiens, UniProt P22455); assay: In vitro enzyme activity test, Z′-LYTE Assay, FGFR4 enzymatic reaction; format: biochemical; settings: for pIC50: Z′-LYTE detection, 150 μM ATP
T2 construct: purchased Life technology
Method: as §1, §2
FGFR4 Enzymatic Reaction:
[…] The detection plate was Bar-coded Corning, low volume NBS, black 384-well plate, reaction conducted at room temperature for 60 minutes, and the reaction system was 10μμL.
as §3, §4

[1] = Pharmacokinetic evaluation in mice (IV and oral gavage); format: in vivo, female Balb/c nude mice; settings: for F (bioavailability; oral absorption ratio): PO gavage 10 mg/kg vs IV 2 mg/kg; for clearance: read-out: Cl (plasma clearance); for half-life: read-out: T1/2 (elimination half-life) (converted); for Vd: read-out: Vdss (steady-state apparent volume of distribution); for Cmax: read-out: Cmax (peak concentration); for Tmax: read-out: Tmax (time to peak)
Method: […] The test compound suspended in the corresponding solvent at 1 mg/ml was administered by gavage to female Balb/c nude mice (fasted overnight, at an age of 7-9 weeks), with a dosage of 10 mg/kg. Two groups of animals were both blood sampled about 30 μL from jugular vein or tail vein at 0.0833, 0.25, 0.5, 1.0, 2.0, 4.0, 6.0, 8.0 and 24 h post-administration, which was placed into an anticoagulant tube charged with EDTA-K2, and plasma was separated by centrifugation. Plasma concentrations were determined by LC-MS/MS process using WinNonlin™ Version 6.3 (Pharsight, Mountain View, Calif.) pharmacokinetic software, calculating the related pharmacokinetic parameters with a linear logarithmic trapezoidal method for […] models.

[2] = tested on: Hep3B Transplantation Models; assay: Tumor growth inhibition (TGI), antitumor activity test of mice in vivo; settings: 30 mg/kg BID, Hep3B transplantation model
Method: The evolutionary growth potential of a tumor was assessed by the relationship between the volume of the tumor and time. The long axis (L) and short axis (W) of a subcutaneous tumor were determined by a caliper twice a week, the tumor volume (TV) was calculated by the formula of ((L×W^2)/2). TGI was calculated by the difference value between the median of tumor volumes of mice in the solvent group and the median of tumor volumes of mice in the drug group, and represented by the percentage accounting for the median of tumor volumes in the solvent control group,
Calculated by the following formula: % TGI=((the median of tumor volume (control group)−the median of tumor volume (dosing group))/the median of tumor volume (control group))×100%
The original statistical analysis was completed by the analysis of repeated variance determination. Subsequently, multiple comparisons were performed by a Scheffe psot hoc experimental method. Single solvent (0.5% methylcellulose+1% aqueous solution of Tween) was the negative control.

[3] = mouse, plasma, IV tail vein 2 mg/kg, female Balb/c nude mice
[4] = mouse, plasma, IV tail vein 0.2 mg/kg, female Balb/c nude mice
[5] = mouse, plasma, PO gavage 10 mg/kg, female Balb/c nude mice

T1 sequence (P11362 22-822): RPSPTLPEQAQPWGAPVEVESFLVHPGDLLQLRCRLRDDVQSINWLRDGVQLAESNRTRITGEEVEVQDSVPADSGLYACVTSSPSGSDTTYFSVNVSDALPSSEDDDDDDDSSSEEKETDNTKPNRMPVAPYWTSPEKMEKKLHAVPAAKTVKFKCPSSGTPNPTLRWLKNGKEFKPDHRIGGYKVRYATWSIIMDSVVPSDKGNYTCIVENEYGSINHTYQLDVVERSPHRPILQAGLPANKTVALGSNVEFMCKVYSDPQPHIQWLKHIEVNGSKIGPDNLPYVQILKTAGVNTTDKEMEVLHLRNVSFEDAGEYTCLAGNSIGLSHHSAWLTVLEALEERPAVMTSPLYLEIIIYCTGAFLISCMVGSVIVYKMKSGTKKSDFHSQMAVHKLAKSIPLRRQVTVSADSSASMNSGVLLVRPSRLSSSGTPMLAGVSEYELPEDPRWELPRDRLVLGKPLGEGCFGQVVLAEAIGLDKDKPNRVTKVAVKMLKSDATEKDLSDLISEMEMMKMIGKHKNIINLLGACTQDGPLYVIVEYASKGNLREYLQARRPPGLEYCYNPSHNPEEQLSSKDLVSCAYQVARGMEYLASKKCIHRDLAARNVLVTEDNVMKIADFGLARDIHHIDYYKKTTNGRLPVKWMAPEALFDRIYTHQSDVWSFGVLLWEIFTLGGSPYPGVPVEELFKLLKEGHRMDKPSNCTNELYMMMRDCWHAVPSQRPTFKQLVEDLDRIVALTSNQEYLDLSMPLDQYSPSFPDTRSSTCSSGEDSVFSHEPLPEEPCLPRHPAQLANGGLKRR
T2 sequence (P22455 22-802): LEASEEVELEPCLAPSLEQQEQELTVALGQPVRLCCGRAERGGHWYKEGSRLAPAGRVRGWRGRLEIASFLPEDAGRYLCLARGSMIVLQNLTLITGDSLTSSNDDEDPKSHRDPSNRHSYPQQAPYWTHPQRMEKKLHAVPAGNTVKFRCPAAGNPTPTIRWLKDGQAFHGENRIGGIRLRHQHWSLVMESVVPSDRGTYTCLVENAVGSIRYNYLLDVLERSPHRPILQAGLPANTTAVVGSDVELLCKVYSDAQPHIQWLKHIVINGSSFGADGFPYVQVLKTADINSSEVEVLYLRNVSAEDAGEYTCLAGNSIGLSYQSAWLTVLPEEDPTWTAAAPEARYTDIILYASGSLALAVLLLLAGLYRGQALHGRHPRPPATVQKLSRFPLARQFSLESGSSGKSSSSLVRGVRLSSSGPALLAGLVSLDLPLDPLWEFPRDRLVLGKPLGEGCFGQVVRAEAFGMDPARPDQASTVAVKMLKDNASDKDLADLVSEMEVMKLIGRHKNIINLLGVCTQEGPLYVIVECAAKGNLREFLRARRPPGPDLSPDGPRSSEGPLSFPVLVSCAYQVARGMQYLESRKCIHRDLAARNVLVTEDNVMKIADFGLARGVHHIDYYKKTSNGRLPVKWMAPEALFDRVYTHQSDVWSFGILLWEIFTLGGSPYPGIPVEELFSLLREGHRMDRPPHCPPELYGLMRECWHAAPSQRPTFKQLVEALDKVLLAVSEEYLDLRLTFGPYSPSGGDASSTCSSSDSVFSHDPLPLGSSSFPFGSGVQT

Structure (SMILES)	pIC50 (FGFR1 protein kinase)	pIC50 (FGFR4 kinases)	also measured
C=CC(=O)Nc1cccc(C)c1Nc1ccc(/C(F)=C/c2cc(OC)cc(OC)c2)cn1 [Control example 1, reference compound]	< 5.00	5.09	
C=CC(=O)Nc1cc(N2CCN(CC)CC2)cc(C)c1Nc1ncc(/C=C/c2c(Cl)c(OC)cc(OC)c2Cl)cn1 [Control example 2, reference compound]	5.53	7.85	
C=CC(=O)N[C@H]1COC[C@H]1Nc1ncc(/C=C/c2c(Cl)c(OC)cc(OC)c2Cl)cn1 [Control example 3, reference compound]		6.39	
C=CC(=O)N[C@H]1CCOC[C@H]1Nc1ncc(OCc2c(F)c(OC)cc(OC)c2F)cn1 [Control example 4]			F (bioavailability; oral absorption ratio) ([1]; female Balb/c nude mice): 0%; AUC(0-t) [1, 3]: 0.958 µM·h; clearance [1, 3]: 77.1 mL/min/kg; half-life [1, 3]: 6.84 min; Vd [1, 3]: 0.533 L/kg
C=CC(=O)Nc1cccc(C)c1Nc1ncc(OCc2c(Cl)c(OC)cc(OC)c2Cl)cn1 [Control example 5]			F (bioavailability; oral absorption ratio) ([1]; female Balb/c nude mice): 0%; AUC(0-t) [1, 3]: 0.528 µM·h; clearance [1, 3]: 127 mL/min/kg; half-life [1, 3]: 13.3 min; Vd [1, 3]: 1.28 L/kg
C=CC(=O)Nc1cccc(C)c1Nc1ncc(OCc2c(F)c(OC)cc(OC)c2F)cn1 [Control example 6]			F (bioavailability; oral absorption ratio) ([1]; female Balb/c nude mice): 0%; AUC(0-t) [1, 3]: 0.388 µM·h; clearance [1, 3]: 186 mL/min/kg; half-life [1, 3]: 14.1 min; Vd [1, 3]: 2.44 L/kg
C=CC(=O)N[C@H]1COC[C@H]1Nc1ncc(OCc2c(F)c(OC)cc(OC)c2F)cn1 [Control example 7]			Cl (plasma clearance) ([1]; IV tail vein 0.2 mg/kg, female Balb/c nude mice): 65 mL/min/kg; AUC(0-t) [1, 4]: 0.113 µM·h; half-life [1, 4]: 6.54 min; Vd [1, 4]: 0.581 L/kg; bioavailability ([1]; mouse, plasma, PO gavage 1.0 mg/kg vs IV 0.2 mg/kg, female Balb/c nude mice, read-out: F (bioavailability)): 0%
C=CC(=O)N[C@H]1COC[C@H]1Nc1ncc(OCc2c(Cl)c(OC)cc(OC)c2Cl)cn1 [Control example 8]			F (bioavailability; oral absorption ratio) ([1]; female Balb/c nude mice): 12.3%; AUC(0-t) [1, 3]: 1.8 µM·h; clearance [1, 3]: 39.7 mL/min/kg; half-life [1, 3]: 9.24 min; Vd [1, 3]: 0.407 L/kg; AUC(0-t) [1, 5]: 1.1 µM·h; Cmax [1, 5]: 2710 nM; Tmax [1, 5]: 15 min
C=CC(=O)Nc1cccc(C)c1Nc1ccc(/C(F)=C/c2c(Cl)c(OC)cc(OC)c2Cl)cn1 [Example 1]	< 5.00	6.95	FGFR4 inhibitory activity enhanced compared with the control example 1 (FGFR4 kinases; ratio to control example 1): 70 times
C=CC(=O)Nc1cccc(C)c1Nc1ncc(/C(F)=C/c2c(Cl)c(OC)cc(OC)c2Cl)cn1 [Example 2]	< 5.00	7.08	
C=CC(=O)Nc1cccc(C)c1Nc1cnc(/C(F)=C/c2c(Cl)c(OC)cc(OC)c2Cl)cn1 [Example 5]		6.69	
C=CC(=O)Nc1cccc(F)c1Nc1ccc(/C(F)=C/c2c(Cl)c(OC)cc(OC)c2Cl)cn1 [Example 6]	< 5.00	6.91	
C=CC(=O)Nc1cccc(C)c1Nc1ccc(/C=C(\F)c2c(Cl)c(OC)cc(OC)c2Cl)cn1 [Example 7]	< 5.00	7.51	TGI % (dosing on Day 21 for the last time) [2]: 108%
C=CC(=O)Nc1cccc(C)c1Nc1ccc(/C(F)=C(\C)c2c(Cl)c(OC)cc(OC)c2Cl)cn1 [Example 10]		6.26	
C=CC(=O)Nc1cc(N2CCN(CC)CC2)cc(C)c1Nc1ncc(/C(F)=C/c2c(Cl)c(OC)cc(OC)c2Cl)cn1 [Example 11]	5.30	7.70	
C=CC(=O)Nc1cc(N2CCN(CC)CC2)c(OC)cc1Nc1ncc(/C=C(\F)c2c(Cl)c(OC)cc(OC)c2Cl)cn1 [Example 12]	7.59	7.96	
C=CC(=O)Nc1ccc(N2CCN(CC)CC2)c(C)c1Nc1ncc(/C=C(\F)c2c(Cl)c(OC)cc(OC)c2Cl)cn1 [Example 13]	6.21	7.52	

Structure (SMILES)	pIC50 (FGFR1 protein kinase)	pIC50 (FGFR4 kinases)	also measured
C=CC(=O)Nc1ccc(OCCN2CCN(C)CC2)c(C)c1Nc1ncc(/C=C(\F)c2c(Cl)c(OC)cc(OC)c2Cl)cn1 [Example 14]	6.74	7.75	
C=CC(=O)Nc1cc(N2CCN(CC)CC2)cc(C)c1Nc1ncc(/C=C(\F)c2c(Cl)c(OC)cc(OC)c2Cl)cn1 [Example 15]	6.09	8.80	FGFR4 inhibitory activity enhancement vs control example (FGFR4 kinases; ratio to control example 2): ~9 times
C=CC(=O)Nc1cccc(F)c1Nc1ccc(/C=C(\F)c2c(Cl)c(OC)cc(OC)c2Cl)cn1 [Example 18]	5.72	6.98	
C=CC(=O)N[C@H]1COC[C@H]1Nc1ncc(/C=C(\F)c2c(Cl)c(OC)cc(OC)c2Cl)cn1 [Example 19]	5.51	7.33	FGFR4 inhibitory activity enhancement vs control example (FGFR4 kinases; ratio to control example 3): ~9 times
C=CC(=O)Nc1cc(F)c(F)cc1Nc1ccc(/C=C(\F)c2c(Cl)c(OC)cc(OC)c2Cl)cn1 [Example 22]		6.24	
C=CC(=O)Nc1cccc(Cl)c1Nc1ccc(/C=C(\F)c2c(Cl)c(OC)cc(OC)c2Cl)cn1 [Example 23]		6.41	
C=CC(=O)Nc1cccc(C)c1Nc1ncc(/C=C(\F)c2c(Cl)c(OC)cc(OC)c2Cl)cn1 [Example 24]	5.68	8.00	stability enhanced (plasma clearance) compared with the control example 5 ([1]; IV, mice, ratio to control example 5): 2 times; stability enhanced (plasma clearance) compared with the control example 6 ([1]; IV, mice, ratio to control example 6): more than 3 times; F (bioavailability; oral absorption ratio) ([1]; female Balb/c nude mice): 14.8%; AUC(0-t) [1, 3]: 1.32 µM·h; clearance [1, 3]: 50 mL/min/kg; half-life [1, 3]: 32.9 min; Vd [1, 3]: 1.82 L/kg; AUC(0-t) [1, 5]: 0.962 µM·h; Cmax [1, 5]: 282 nM; Tmax [1, 5]: 30 min
C=CC(=O)N[C@@H]1CCC[C@@H]1Nc1ncc(/C=C(\F)c2c(Cl)c(OC)cc(OC)c2Cl)cn1 [Example 25]	6.45	6.32	
C=CC(=O)Nc1cc(N2CCN(C(C)=O)CC2)cc(C)c1Nc1ncc(/C=C(\F)c2c(Cl)c(OC)cc(OC)c2Cl)cn1 [Example 26]		7.89	
C=CC(=O)Nc1cc(Cl)cc(F)c1Nc1ccc(/C=C(\F)c2c(Cl)c(OC)cc(OC)c2Cl)cn1 [Example 28]	5.49	6.58	
C=CC(=O)Nc1cc(F)cc(C)c1Nc1ccc(/C=C(\F)c2c(Cl)c(OC)cc(OC)c2Cl)cn1 [Example 29]		6.57	
C=CC(=O)Nc1cc(F)cc(C)c1Nc1ncc(/C=C(\F)c2c(Cl)c(OC)cc(OC)c2Cl)cn1 [Example 30]		6.62	
C=CC(=O)Nc1ccc(Cl)c(C)c1Nc1ccc(/C=C(\F)c2c(Cl)c(OC)cc(OC)c2Cl)cn1 [Example 31]	< 5.00	6.25	
C=CC(=O)N[C@@H]1COC[C@@H]1Nc1ncc(/C(F)=C/c2c(Cl)c(OC)cc(OC)c2Cl)cn1 [Example 32]		6.44	
C=CC(=O)NC1CN(C(C)=O)CC1Nc1ncc(/C=C(\F)c2c(Cl)c(OC)cc(OC)c2Cl)cn1 (stereo not shown) [Example 34]		6.70	
C=CC(=O)Nc1ccc(OC)c(C)c1Nc1ncc(/C=C(\F)c2c(Cl)c(OC)cc(OC)c2Cl)cn1 [Example 35]	6.76	7.64	
